Reference: article PMC11224357, “Green, facile synthesis and evaluation of unsymmetrical carbamide derivatives as antimicrobial and anticancer agents with mechanistic insights” (Scientific Reports, 2024)
≈ marks a conversion by molar mass, not a printed value. Read-outs that look alike come from different tables or passages of the source.

Tests used:
Aspergillus fumagitus [1] = test: Agar well diffusion; type: cell-based; conditions: read-out: Inhibition Zone
Description: (§1) The antimicrobial efficiency of the synthesized unsymmetrical carbamide derivatives was screened using standard clinical pathogens derived from Department of Microbiology and Immunology, Faculty of Medicine (Boys), Al-Azhar University. The tested microbial pathogens used in this study were as follows, two Gram-positive bacteria (Bacillus subtilis, Staphylococcus aureus), two Gram-negative bacteria (Pseudomonas aerginousea, klebsiella pneumoniae) and two fungi (Candida albicans, Aspergillus fumgitus). Before each antimicrobial examination, pre-activation of each microbial pathogen was implemented using specific growth conditions. For bacterial ones, preinoculum was prepared using Nuitrent broth medium (Codalab, Spain) at 37 °C for 24 h. while the fungal pathogens were activated using Potato Dextrose broth (Codalab, Spain) at 28 °C for 48 h. Consequently, each tested pathogen justified its inoculum size based on Colony Forming Units (CFU) to be closed to […] during all antimicrobial tests.

Candida albicans [2] = test: Agar well diffusion; type: cell-based; conditions: read-out: Inhibition Zone
Description: as §1

Bacillus subtilis [3] = test: Agar well diffusion; type: cell-based; conditions: read-out: Inhibition Zone
Description: as §1, with “For bacterial ones, preinoculum was prepared using Nuitrent broth medium (Codalab, Spain) at 37 °C for 24 h. while the fungal pathogens were activated using Potato Dextrose broth (Codalab, Spain) at 28 °C for 48 h.” left out

Pseudomonas aeruginosa [4] = test: Agar well diffusion; type: cell-based; conditions: read-out: Inhibition Zone
Description: as §1, with “For bacterial ones, preinoculum was prepared using Nuitrent broth medium (Codalab, Spain) at 37 °C for 24 h. while the fungal pathogens were activated using Potato Dextrose broth (Codalab, Spain) at 28 °C for 48 h.” left out

Staphylococcus aureus [5] = test: Agar well diffusion; type: cell-based
Description: as §1, with “For bacterial ones, preinoculum was prepared using Nuitrent broth medium (Codalab, Spain) at 37 °C for 24 h. while the fungal pathogens were activated using Potato Dextrose broth (Codalab, Spain) at 28 °C for 48 h.” left out

Klebsiella pneumonia [6] = test: Agar well diffusion; type: cell-based; conditions: Klebsiella pneumoniae, read-out: Inhibition Zone
Description: as §1, with “For bacterial ones, preinoculum was prepared using Nuitrent broth medium (Codalab, Spain) at 37 °C for 24 h. while the fungal pathogens were activated using Potato Dextrose broth (Codalab, Spain) at 28 °C for 48 h.” left out

Bacillus subtilis [7] = test: MIC by microdilution (CLSI); type: cell-based; conditions: read-out: Minimum inhibitory concentration (MIC)
Protocol: (§2) In brief, a defined weight for each selected compound was dissolved in dimethylsulphoxide (DMSO) and used as a stock solution[29].

Pseudomonas aeruginosa [8] = test: MIC by microdilution (CLSI); type: cell-based; conditions: read-out: Minimum inhibitory concentration (MIC)
Protocol: as §2

Staphylococcus aureus [9] = test: MIC by microdilution (CLSI); type: cell-based; conditions: read-out: Minimum inhibitory concentration (MIC)
Protocol: as §2

Klebsiella pneumonia [10] = test: MIC by microdilution (CLSI); type: cell-based; conditions: Klebsiella pneumoniae, read-out: Minimum inhibitory concentration (MIC)
Protocol: as §2

Bacillus subtilis [11] = test: Lipid peroxidation (LPO) MDA-TBA assay of bacterial cell membrane; type: cell-based; conditions: overnight incubation, MDA-TBA at 532 nm
Protocol: (§3) Lipid peroxidation of bacterial cell membranes was a remarkable tool indicating the oxidative stress that was caused by the tested compounds. The lipid peroxidation colorimetric assay kit was used for this purpose. […]. […] Briefly, each tested compound was incubated with each bacterial pathogen overnight under shaking and then 1 mL of the treated bacterial cell was vigorously mixed with 300 μL MDA lysis buffer at 4 °C. The addition of 3 μL of Butylated hydroxytoluene (BHT) was then performed to avoid the pigment interference that resulted from the decomposition of lipophilic peroxides. Thereafter, samples were separated by centrifugation at 8000 rpm for 10 min, and the insoluble substances were discarded. Finally, 200 μL of the clear supernatant was mixed with 600 μL of the TBA solution at 95 °C for 60 min. Samples were then cooled at room temperature, and the developed pink color was determined at 532 nm using a Spectrophotometer (Agilent Cary 100, Germany). The positive control was also prepared using 5% of Hydrogen peroxide and treated each bacterial pathogen for 20 min. The noticed increase in the lipid peroxidation efficiency was expressed from the following equation: Lipidperoxidationefficiency%=NC-NS/NC×100. where NC is the absorbance of lipid peroxidation in the untreated bacterial cells and NS is the absorbance of lipid peroxidation in the treated bacterial cells.

Pseudomonas aeruginosa [12] = test: as above; type: cell-based; conditions: overnight incubation, MDA-TBA at 532 nm
Protocol: as §3

Staphylococcus aureus [13] = test: as above; type: cell-based; conditions: overnight incubation, MDA-TBA at 532 nm
Protocol: as §3

Klebsiella pneumonia [14] = test: as above; type: cell-based; conditions: overnight incubation, MDA-TBA at 532 nm
Protocol: as §3

Aspergillus fumagitus [15] = test: MIC by microdilution (CLSI); type: cell-based; conditions: read-out: Minimum inhibitory concentration (MIC)
Protocol: (§4) For this purpose, serial dilution of the potent compounds was carried out to obtain the desired concentrations (i.e. 10–400 µg/mL). In brief, a defined weight for each selected compound was dissolved in dimethylsulphoxide (DMSO) and used as a stock solution[29]. The determination of the MIC value for each targeted compound was known as the lowest concentration of each sample that yielded a minimum number of colony-forming units (CFU) compared to the untreated samples[28].

Candida albicans [16] = test: MIC by microdilution (CLSI); type: cell-based; conditions: read-out: Minimum inhibitory concentration (MIC)
Protocol: as §4

HCT-116 cells [17] = test: Cell cycle analysis by flow cytometry (PI staining); type: cell-based, human
Protocol: The ethanol-suspended cells were centrifuged and re-suspended in 5 mL 1 × DPBS, then centrifuged again before being re-suspended in 1 mL of PI staining solution. The stained cells were kept in the dark at room temperature for 30 min before being transferred to the CytoFLEX Flow Cytometer to measure their fluorescence. […] BECKMAN COULTER Inc., Cairo, Egypt, Cat. No. 4238055-CB was used in this assay.

[18] = test system: MCF-7 (human breast cancer); test: MTT cytotoxicity assay; type: cell-based; conditions: for IC50: MTT
Protocol: The MTT 3-(4,5-dimethylthiazol-2-yl)-2,5-diphenyl-tetrazolium bromide (Bio Basic Canada Inc. Toronto, Canada) assay was used to assess cell viability. The procedures were carried out in a biosafety class II sterile laminar air flow cabinet (Baker, SG403INT; Sanford, ME, USA). […] Cells were seeded at a density of (10^4 cells/well) into 96-well micro titer polypropylene plates and left to adhere for 24 h. […] After 48 h of incubation, 40 µL of MTT salt ([…]) was applied to each well. […] Instead of the tested substances, the medium was applied to the untreated cells (negative control). […] The testing substance was dissolved in dimethylsulfoxide (DMSO), and its final concentration in the cells was less than 0.2%. The solvent concentration was the same for all medications and between the control and drug treatments at the same dilution.

HCT-116 cells [19] = test: Annexin V-FITC/PI necrosis cell apoptosis assay; type: cell-based, human; conditions: % of population
Protocol: (§5) The levels of necrosis and apoptosis in cells were determined by CytoFLEX Flow Cytometer. A total of 1 × 10^6 cells were washed in 1 × DPBS, and then were centrifuged at 500 × ϲ for 5 min. 1 μL of annexin V-FITC solution and 5 μL of dissolved PI were added to 100 μL of the cell suspensions that kept on ice and were incubated for 15 min in the dark. Cells were then analyzed by the CytoFLEX Flow Cytometer (Beckman Coulter Life Sciences, USA) and the percentage of apoptotic cells was determined using CytExpert Software.

[20] = test system: BJ-1 (human normal skin fibroblast cells); test: MTT cytotoxicity assay; type: cell-based; conditions: BJ-1 normal cells, 100 µM
Protocol: (§6) The MTT 3-(4,5-dimethylthiazol-2-yl)-2,5-diphenyl-tetrazolium bromide (Bio Basic Canada Inc. Toronto, Canada) assay was used to assess cell viability. The procedures were carried out in a biosafety class II sterile laminar air flow cabinet (Baker, SG403INT; Sanford, ME, USA). […] Cells were seeded at a density of (10^4 cells/well) into 96-well micro titer polypropylene plates and left to adhere for 24 h. The media was aspirated and the test chemicals were given to the cells in a single dose of 100 µM in DMSO. After 48 h of incubation, 40 µL of MTT salt ([…]) was applied to each well. […] Instead of the tested substances, the medium was applied to the untreated cells (negative control). […] The testing substance was dissolved in dimethylsulfoxide (DMSO), and its final concentration in the cells was less than 0.2%. The solvent concentration was the same for all medications and between the control and drug treatments at the same dilution.

MTT cytotoxicity assay = type: cell-based, human; conditions: human, BJ-1 normal cells
Protocol: as §6

[21] = test system: HCT-116 (human colon cancer); test: MTT cytotoxicity assay; type: cell-based
Protocol: as §6

MCF-7 cells = test: Annexin V-FITC/PI necrosis cell apoptosis assay; type: cell-based, human; conditions: % of population
Protocol: as §5

[22] = Aspergillus fumagitus, 20 µg/mL
[23] = Homo sapiens, MCF7, 48 h, MCF-7, 48 h

| Compound | melting point [°C] | zone of inhibition at 20 µg/mL (Aspergillus fumagitus [1]; [22]) [mm] | zone of inhibition at 20 µg/mL (Candida albicans [2]; 20 µg/mL) [mm] | zone of inhibition at 20 µg/mL (Bacillus subtilis [3]; 20 µg/mL) [mm] | zone of inhibition at 20 µg/mL (Pseudomonas aeruginosa [4]; 20 µg/mL) [mm] | zone of inhibition at 20 µg/mL (Staphylococcus aureus [5]) [mm] | zone of inhibition at 20 µg/mL (Klebsiella pneumonia [6]; Klebsiella pneumonia, 20 µg/mL) [mm] | MIC (Bacillus subtilis [7]) [µg/mL] | MIC (Pseudomonas aeruginosa [8]) [µg/mL] | MIC (Staphylococcus aureus [9]) [µg/mL] | MIC (Klebsiella pneumonia [10]) [µg/mL] | Lipid peroxidation (Bacillus subtilis [11]) [%] | Lipid peroxidation (Pseudomonas aeruginosa [12]) [%] | Lipid peroxidation (Staphylococcus aureus [13]) [%] | Lipid peroxidation (Klebsiella pneumonia [14]) [%] | MIC (Aspergillus fumagitus [15]) [µg/mL] | MIC (Candida albicans [16]) [µg/mL] | IC50 [18, 23] [µM] | also measured |
| --- | --- | --- | --- | --- | --- | --- | --- | --- | --- | --- | --- | --- | --- | --- | --- | --- | --- | --- | --- |
| Cc1ccc(NC(=O)N2CCOCC2)cc1 [Compound 15, N-(p-tolyl)morpholine-4-carboxamide] | 165 to 167 | 2 | 4 | 2 | 4 | 2 | 4 | 40 (≈ 182 µM) | 20 (≈ 90.8 µM) | 40 (≈ 182 µM) | 20 (≈ 90.8 µM) | 157.1 | 107 | 128.9 | 108.6 | 20 (≈ 90.8 µM) | 10 (≈ 45.4 µM) | – | – |
| CN1CCN(C(=O)Nc2ccccc2)CC1 [Compound 21, 4-Methyl-N-phenylpiperazine-1-carboxamide] | 128 to 130 | – | – | – | – | – | – | – | – | – | – | – | – | – | – | – | – | 91.6 ± 0.112 | cell cycle arrest (phase) (HCT-116 cells [17]): weaker than those of compound 13; cytotoxicity at 100 µM ([18]; Homo sapiens, MCF7, 48 h): ≥ 51%; early apoptosis (HCT-116 cells [19]): 0.99%; late apoptosis (HCT-116 cells [19]): 0.44%; zone of inhibition at 20 µg/mL (Aspergillus fumagitus [1]; Aspergillus): 2 mm; zone of inhibition at 20 µg/mL (Candida albicans [2]): 3 mm; Cytotoxicity (%) [20]: 47.2%; cytotoxicity at 48 h, 100 µM (MTT cytotoxicity assay): 38.9%; cytotoxicity at 100 µM ([21]; HCT-116, 48 h): ≥ 65%; IC50 ([21]; HCT-116, MTT, 48 h): 38.5 ± 0.17 µM; zone of inhibition at 20 µg/mL (Bacillus subtilis [3]): 4 mm; zone of inhibition at 20 µg/mL (Pseudomonas aeruginosa [4]): 2 mm; zone of inhibition at 20 µg/mL (Klebsiella pneumonia [6]): 3 mm |
| O=C(Nc1ccccc1)N1CCCCC1 [Compound 22, N-phenylpiperidine-1-carboxamide] | 190 to 192 | 4 | 5 | 5 | 3 | 2 | 3 | 10 (≈ 49 µM) | 80 (≈ 392 µM) | 40 (≈ 196 µM) | 40 (≈ 196 µM) | 264.8 | 170 | 273.4 | 191.3 | 10 (≈ 49 µM) | 5 (≈ 24.5 µM) | 91.6 ± 0.112 | cytotoxicity at 100 µM ([18]; Homo sapiens, MCF7, MCF-7, single dose 100 µM, 48 h, read-out: Cytotoxicity (%)): ≥ 51%; IC50 ([18]; MCF-7, 48 h): 57.9 ± 0.122 µM; early apoptosis (MCF-7 cells): 7.93%; late apoptosis (MCF-7 cells): 1.1% |
